Measured values from patent US9981925B2, “Substituted benzo[d][1,2,3]triazines as p70S6K inhibitors” (Merck Patent GmbH, priority 2012, dated 2018).

Columns and labels:
p70S6K (T412E mutant) = p70S6K (T412E mutant) (Homo sapiens (Human), UniProt P23443, T412E); test: p70S6K enzyme assay; assay type: biochemical; details: 24 μM ATP, 90 min at 25° C., Caliper mobility shift
Experimental: p70S6K inhibitor compounds were diluted and plated in 96 well plates. A reaction mixture including the following components were then added to the compound plate to initiate the enzyme reaction: p70S6K (3 nM, T412E mutant, Millipore) was mixed with 24 μM ATP in an assay buffer containing 100 mM Hepes (pH 7.5), 5 mM MgCl2, 1 mM DTT, 0.015% Brij and 1 μM of the substrate peptide FITC-AHA-[…]-OH (derived from the S6 ribosomal protein sequence, FITC=fluorescein isothiocyanate, AHA=6-aminohexanoic acid). The reaction was incubated for 90 min at 25° C., before the addition of 10 mM EDTA to stop the reaction. The proportion of substrate and product (phosphorylated) peptide was analyzed on a Caliper Life Sciences Lab Chip 3000, using a pressure of −1.4 psi, and upstream and downstream voltages of −3000 and −700, respectively. Product peaks were resolved before substrate peaks on the resulting chromatograms. To assess the inhibitory potential of the compounds, IC50 values were determined, as shown above.

His-AKT (Full Length) = His-AKT (Full Length) (Homo sapiens (Human), UniProt P31749); test: AKT/PKB kinase assay; assay type: biochemical; details: 160 μM ATP, 90 min at 25° C., Caliper mobility shift
Experimental: In order to measure AKT inhibition in the Caliper Life Sciences LC3000, a TTP Mosquito liquid handling instrument was used to place 125 nl of the appropriate concentration of inhibitor in 100% DMSO (for a dose response curve calculation) into each well of a 384-well plate. To this reaction, the following components were added to a final volume of 12.5 μl: • 0.1 ng/μl His-AKT (Full Length) (Invitrogen, Part # P2999, Lot #641228C); • 160 μM ATP (Fluka, 02055); • 1 mM DTT (Sigma, D0632); • 1 mM MgCl2 (Sigma, M1028); • 1 μM substrate peptide (sequence FITC-AHA-[…]-NH2), synthesized by • Tufts Peptide Synthesis service; • 100 mM HEPES pH 7.5 (Calbiochem, 391338); and • 0.015% Brij-35 (Sigma, B4184).
The reaction was incubated for 90 min at 25° C., and then stopped by the addition of 70 μl of Stop buffer (100 mM HEPES pH 7.5, 0.015% Brij-35, 10 mM EDTA (Sigma, E7889)). The plate was read on a Caliper LC 3000 in an Off-Chip mobility shift assay format, using the following parameters for a 12-sipper chip: screening pressure −2.3 psi, upstream voltage −500, and downstream voltage −3000. These conditions cause unphosphorylated substrate and phosphorylated product peptide to resolve as separate peaks allowing direct measurement of percentage of conversion of substrate to product. The percent conversion was plotted against concentration of inhibitor to produce a sigmoidal dose response curve, from which an IC50 was calculated.

Sequence of His-AKT (Full Length) (P31749 whole entry): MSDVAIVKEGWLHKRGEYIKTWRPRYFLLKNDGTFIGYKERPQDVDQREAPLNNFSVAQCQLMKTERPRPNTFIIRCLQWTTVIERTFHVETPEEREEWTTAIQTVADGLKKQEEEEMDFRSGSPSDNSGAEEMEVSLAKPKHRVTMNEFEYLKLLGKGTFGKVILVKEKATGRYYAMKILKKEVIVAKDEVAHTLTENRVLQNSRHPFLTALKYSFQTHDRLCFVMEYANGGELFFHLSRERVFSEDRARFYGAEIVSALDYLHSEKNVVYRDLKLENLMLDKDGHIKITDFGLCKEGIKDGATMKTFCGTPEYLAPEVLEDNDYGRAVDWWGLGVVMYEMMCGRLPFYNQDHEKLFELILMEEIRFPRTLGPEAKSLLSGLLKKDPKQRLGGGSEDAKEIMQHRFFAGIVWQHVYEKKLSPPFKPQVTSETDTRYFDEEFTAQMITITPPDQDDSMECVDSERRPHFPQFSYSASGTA
Sequence of p70S6K (T412E mutant) (P23443 whole entry T412E): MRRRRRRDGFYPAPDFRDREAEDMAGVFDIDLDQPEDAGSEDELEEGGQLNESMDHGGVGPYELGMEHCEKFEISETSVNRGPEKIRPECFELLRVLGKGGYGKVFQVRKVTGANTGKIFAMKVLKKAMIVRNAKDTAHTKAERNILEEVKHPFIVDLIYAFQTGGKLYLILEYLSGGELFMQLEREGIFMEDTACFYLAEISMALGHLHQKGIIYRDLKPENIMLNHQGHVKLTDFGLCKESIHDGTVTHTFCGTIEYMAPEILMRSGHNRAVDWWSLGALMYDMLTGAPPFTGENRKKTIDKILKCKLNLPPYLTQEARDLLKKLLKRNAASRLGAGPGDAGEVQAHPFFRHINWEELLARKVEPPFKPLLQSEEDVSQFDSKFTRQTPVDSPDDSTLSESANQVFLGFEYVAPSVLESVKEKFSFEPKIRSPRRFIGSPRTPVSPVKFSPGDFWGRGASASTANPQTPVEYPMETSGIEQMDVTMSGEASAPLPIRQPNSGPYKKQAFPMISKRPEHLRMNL

Row | Structure (SMILES) | IC50 (p70S6K (T412E mutant)) [nM] | IC50 (His-AKT (Full Length)) [nM]
1 | CN(C)C[C@@H](Nc1nnnc2c(C(N)=O)cccc12)c1ccc(Cl)c(C#N)c1 [Compound 17, (S)-4-((1-(4-chloro-3-cyanophenyl)-2-(dimethylamino)ethyl)amino)-benzo[d][1,2,3]triazine-8-carboxamide] | 25 to 100 | 101 to 500
2 | NC(=O)c1cccc2c(NCc3ccc(Cl)c(Cl)c3)nnnc12 [Compound 2, 4-((3,4-dichlorobenzyl)amino)benzo[d][1,2,3]triazine-8-carboxamide] | < 25 | > 1000
3 | NC(=O)c1ccnc2c(N[C@H](CN3CCC3)c3ccc(C(F)(F)F)c(C(F)(F)F)c3)ncnc12 [Compound 63, 4-[(S)-2-Azetidin-1-yl-1-(3,4-bis-trifluoromethyl-phenyl)-ethylamino]-pyrido[3,2-d]pyrimidine-8-carboxylic Acid Amide] | < 25 | < 25
4 | CNC[C@@H](Nc1ncnc2c(C(N)=O)ccnc12)c1ccc(C(F)(F)F)cc1 [Compound 38, 4-[(S)-2-Methylamino-1-(4-trifluoromethyl-phenyl)-ethylamino]-pyrido[3,2-d]pyrimidine-8-carboxylic Acid Amide] | < 25 | 25 to 100
5 | CNC[C@@H](Nc1ncnc2c(C(N)=O)ccnc12)c1ccc(Cl)c(C(F)(F)F)c1 [Compound 72, 4-[(S)-1-(4-Chloro-3-trifluoromethyl-phenyl)-2-methylamino-ethylamino]-pyrido[3,2-d]pyrimidine-8-carboxylic Acid Amide] | < 25 | < 25
6 | CNC[C@@H](Nc1ncnc2c(C(N)=O)ccnc12)c1ccc(F)c(C(F)(F)F)c1 [Compound 49, 4-[(S)-1-(4-Fluoro-3-trifluoromethyl-phenyl)-2-methylamino-ethylamino]-pyrido[3,2-d]pyrimidine-8-carboxylic Acid Amide] | < 25 | < 25
7 | NC(=O)c1ccnc2c(N[C@H](CN3CCC3)c3ccc(C(F)(F)F)cc3)ncnc12 [Compound 27, 4-[(S)-2-Azetidin-1-yl-1-(4-trifluoromethyl-phenyl)-ethylamino]-pyrido[3,2-d]pyrimidine-8-carboxylic Acid Amide] | < 25 | 101 to 500
8 | CNC[C@@H](Nc1ncnc2c(C(N)=O)ccnc12)c1ccc(Cl)cc1 [Compound 45, 4-[(S)-1-(4-Chloro-phenyl)-2-methylamino-ethylamino]-pyrido[3,2-d]pyrimidine-8-carboxylic Acid Amide] | < 25 | 25 to 100
9 | CCNC[C@@H](Nc1ncnc2c(C(N)=O)ccnc12)c1ccc(F)c(Br)c1 [Compound 30, 4-[(S)-1-(3-Bromo-4-fluoro-phenyl)-2-ethylamino-ethylamino]-pyrido[3,2-d]pyrimidine-8-carboxylic Acid Amide] |  | 25 to 100
10 | CNC[C@@H](Nc1ncnc2c(C(N)=O)ccnc12)c1ccc(Cl)c(Cl)c1 [Compound 75, 4-[(S)-1-(3,4-Dichloro-phenyl)-2-methylamino-ethylamino]-pyrido[3,2-d]pyrimidine-8-carboxylamide] | < 25 | < 25
11 | CCNC[C@@H](Nc1ncnc2c(C(N)=O)ccnc12)c1ccc(C(F)(F)F)c(F)c1 [Compound 29, 4-[(S)-2-Ethylamino-1-(3-fluoro-4-trifluoromethyl-phenyl)-ethylamino]-pyrido[3,2-d]pyrimidine-8-carboxylic Acid Amide] | < 25 | 25 to 100
12 | CC(C)NC[C@@H](Nc1ncnc2c(C(N)=O)ccnc12)c1ccc(Cl)c(F)c1 [Compound 54, 4-[(S)-1-(4-Chloro-3-fluoro-phenyl)-2-isopropylamino-ethylamino]-pyrido[3,2-d]pyrimidine-8-carboxylic Acid Amide] | 25 to 100 | 101 to 500
13 | CNC[C@@H](Nc1ncnc2c(C(N)=O)ccnc12)c1cc(F)cc(C(F)(F)F)c1 [Compound 35, 4-[(S)-1-(3-Fluoro-5-trifluoromethyl-phenyl)-2-methylamino-ethylamino]-pyrido[3,2-d]pyrimidine-8-carboxylic Acid Amide] | < 25 | 25 to 100
14 | CC(C)NC[C@@H](Nc1ncnc2c(C(N)=O)ccnc12)c1ccc(Cl)c(C(F)(F)F)c1 [Compound 55, 4-[(S)-1-(4-Chloro-3-trifluoromethyl-phenyl)-2-isopropylamino-ethylamino]-pyrido[3,2-d]pyrimidine-8-carboxylic Acid Amide] | 101 to 500 | 101 to 500
15 | NC(=O)c1cccc2c(NCc3ccc(C(F)(F)F)cc3)nnnc12 [Compound 8, 4-((4-(trifluoromethyl)benzyl)amino)benzo[d][1,2,3]triazine-8-carboxamide] | 25 to 100 | > 1000
16 | CNC[C@@H](Nc1ncnc2c(C(N)=O)ccnc12)c1ccc(C(C)C)cc1 [Compound 39, 4-[(S)-1-(4-Isopropyl-phenyl)-2-methylamino-ethylamino]-pyrido[3,2-d]pyrimidine-8-carboxylic Acid Amide] | < 25 | 101 to 500
17 | NC(=O)c1cccc2c(NCc3cccnc3)nnnc12 [Compound 3, 4-((pyridin-3-ylmethyl)amino)benzo[d][1,2,3]triazine-8-carboxamide] | > 1000 | > 1000
18 | CNC[C@@H](Nc1ncnc2c(C(N)=O)ccnc12)c1ccc(F)c(C)c1 [Compound 67, 4-[(S)-1-(4-Fluoro-3-methyl-phenyl)-2-methylamino-ethylamino]-pyrido[3,2-d]pyrimidine-8-carboxylic Acid Amide] | < 25 | < 25
19 | NC(=O)c1cccc2c(NCc3cccc(C(F)(F)F)c3)nnnc12 [Compound 1, 4-(3-Trifluoromethyl-benzylamino)-benzo[d][1,2,3]triazine-8-carboxamide] | 101 to 500 | > 1000
20 | NC(=O)c1cccc2c(NCc3ccc(Cl)c(C(F)(F)F)c3)nnnc12 [Compound 4, 4-((4-chloro-3-(trifluoromethyl)benzyl)amino)benzo[d][1,2,3]triazine-8-carboxamide] | < 25 | > 1000
21 | NC(=O)c1ccnc2c(N[C@H](CN3CCC3)c3ccc(Cl)cc3)ncnc12 [Compound 36, 4-[(S)-2-Azetidin-1-yl-1-(4-chloro-phenyl)-ethylamino]-pyrido[3,2-d]pyrimidine-8-carboxylic Acid Amide] | < 25 | 101 to 500
22 | NC(=O)c1cccc2c(N[C@H](CN3CCC3)c3ccc(F)c(C(F)(F)F)c3)nnnc12 [Compound 12, (S)-4-((2-(azetidin-1-yl)-1-(4-fluoro-3-(trifluoromethyl)phenyl)ethyl)amino)benzo[d][1,2,3]triazine-8-carboxamide] | < 25 | < 25
23 | NC(=O)c1cccc2c(NC3CNCCC3c3ccc(C(F)(F)F)cc3)nnnc12 (stereo not drawn) [Compound 22, 4-((4-(4-(trifluoromethyl)phenyl)piperidin-3-yl)amino)benzo[d][1,2,3]triazine-8-carboxamide] | < 25 | 101 to 500
24 | CNC[C@@H](Nc1ncnc2c(C(N)=O)nccc12)c1ccc(Cl)c(C(F)(F)F)c1 [Compound 42, 4-[(S)-1-(4-Chloro-3-trifluoromethyl-phenyl)-2-methylamino-ethylamino]-pyrido[3,4-d]pyrimidine-8-carboxylic Acid Amide] | < 25 | < 25
25 | NC(=O)c1cccc2c(NCc3ccccn3)nnnc12 [Compound 5, 4-((pyridin-2-ylmethyl)amino)benzo[d][1,2,3]triazine-8-carboxamide] | > 1000 | > 1000
26 | CN(C)C[C@@H](Nc1ncnc2c(C(N)=O)ccnc12)c1ccc(Cl)c(F)c1 [Compound 53, 4-[(S)-1-(4-Chloro-3-fluoro-phenyl)-2-dimethylamino-ethylamino]-pyrido[3,2-d]pyrimidine-8-carboxylic Acid Amide] |  | 25 to 100
27 | CCNC[C@@H](Nc1ncnc2c(C(N)=O)ccnc12)c1ccc(F)c(Cl)c1 [Compound 61, 4-[(S)-1-(3-Chloro-4-fluoro-phenyl)-2-ethylamino-ethylamino]-pyrido[3,2-d]pyrimidine-8-carboxylic Acid Amide] |  | 25 to 100
